pIC50: −log10 of the molar value. Where two headings read alike, the source gives them in different places.
What was measured:
Assay type in all cases: cell-based
A549 cells = assay: in vitro antiproliferation assay, A549 (lung); settings: A549 (lung) cells
Outline: (§1)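 IC50 values came from standard antiproliferation testing in cultured tumour cells; the A549 and H1299 lines are of lung origin.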

HCT116 = assay: in vitro antiproliferation assay, HCT116 (colon)
Procedure: The IC50 values of various compounds against a various different tumor cell lines were determined using standard in vitro antiproliferation assays. The tumor cell lines tested were as follows: A549 (lung); H1299 (lung), ACHN (kidney/p53 wt), CAKI (renal cell carcinoma), NCI-H460 (lung); HCT116 (colon/p53w0; HELA (cervix/p53 wt), HUH7 (liver/p53 wt), HUVEC (primary endothelial), LNCAP (prostate), HT-29 (colon); MCF-7 (breast); MCF-7 (breast/ER positive), MDA MB435S (breast); MDA MB231 (breast/ER negative), DU145 (prostate); BxPC-3 (pancreatic); SKOV-3 (ovarian); HepG2 (hepatic), NDHF primary normal human dermal fibroblast), SKMEL28 (breast/p53mut), SKMEL5 (breast/p53 wt), U20S (bone) and PC3 (prostate). […] A blank indicates the specified compound was not tested against the specified cell line.
Many of the compounds were tested against other cell lines. Their activity is reported in TABLE 15, below, where +”, “−”, “−/+” or “+/−” values are as described for TABLES 1-14. Where the cell line includes a value in a parenthetical, the value indicates the seeding density at which the assay was performed

H1299 cells = assay: in vitro antiproliferation assay, H1299 (lung); settings: H1299 (lung) cells
Outline: as §1

[1] = Table 7, in vitro antiproliferation
[2] = HCT116 (colon), read-out: HCT116

Compound | pIC50 (HCT116; [2]) | pIC50 (A549 cells; Homo sapiens) | pIC50 (H1299 cells; Homo sapiens, NCI-H1299) | further results
COC(=O)c1cc2cc(Nc3ncc(F)c(Nc4ccc(Cl)cc4)n3)ccc2o1 [compound 651] | < 4.70 |  |  | pIC50 (A549 cells; [1]): < 4.70
COC(=O)c1cc2cc(Nc3ncc(F)c(Nc4ccc(Cl)c(Cl)c4)n3)ccc2o1 [compound 652] | < 4.70 |  |  | pIC50 (A549 cells; [1]): < 4.70
COC(=O)c1cc2cc(Nc3ncc(F)c(Nc4ccc5c(c4)NC(=O)C(C)(C)O5)n3)ccc2o1 [compound 677] | < 4.70 |  |  | pIC50 (A549 cells; [1]): ≥ 4.70; pIC50 (HCT116; Table 7, in vitro antiproliferation, colon cells, read-out: HTC116): < 4.70
COc1ccc(Nc2ncc(F)c(Nc3ccc(OC)c(OC)c3)n2)cc1OC [compound 710] | ≥ 4.70 |  |  | pIC50 (A549 cells; in vitro antiproliferation): ≥ 4.70
Fc1cnc(Nc2cccc(Cl)c2)nc1Nc1cccc(Cl)c1 [compound 717] | < 4.70 |  |  | pIC50 (A549 cells; in vitro antiproliferation): ≥ 4.70
CNC(=O)COc1cccc(Nc2ncc(F)c(Nc3cccc(O)c3)n2)c1 [compound 732] | ≥ 4.70 |  |  | pIC50 (A549 cells; in vitro antiproliferation): ≥ 4.70
CNC(=O)COc1cccc(Nc2ncc(F)c(Nc3cccc(OC)c3)n2)c1 [compound 755] | ≥ 4.70 |  |  | pIC50 (A549 cells; in vitro antiproliferation): ≥ 4.70
COc1cc(Nc2ncc(F)c(Nc3cc(OC)cc(OC)c3)n2)cc(OC)c1 [compound 839] | ≥ 4.70 |  |  | pIC50 (A549 cells; in vitro antiproliferation): ≥ 4.70
COc1cc(Nc2nc(Nc3cc(Cl)cc(Cl)c3)ncc2F)cc(OC)c1 [compound 847] | ≥ 4.70 |  |  | pIC50 (A549 cells; in vitro antiproliferation): ≥ 4.70
COc1cc(Nc2nc(Nc3cc(C)cc(C(F)(F)F)c3)ncc2F)cc(OC)c1 [compound 848] | ≥ 4.70 |  |  | pIC50 (A549 cells; in vitro antiproliferation): ≥ 4.70
CNC(=O)COc1cccc(Nc2ncc(F)c(Nc3cc(C)c(O)c(Cl)c3)n2)c1 [compound 991] | ≥ 4.70 |  |  | pIC50 (A549 cells; antiproliferation): ≥ 4.70
COc1cc(Nc2nc(Nc3ccc4c(cnn4C(C)(C)CC4CC4)c3)ncc2F)ccc1F [compound 1109] |  |  |  | pIC50 (A549 cells): ≥ 4.70; pIC50 (H1299 cells): ≥ 4.70
COc1ccc(Nc2nc(Nc3ccc4cnn(C(C)(C)CC5CC5)c4c3)ncc2F)cc1Cl [compound 1110] |  |  |  | pIC50 (A549 cells): ≥ 4.70; pIC50 (H1299 cells): ≥ 4.70
CC(C)(CC1CC1)n1ncc2ccc(Nc3ncc(F)c(Nc4ccc(Cl)c(Cl)c4)n3)cc21 [compound 1111] |  |  |  | pIC50 (A549 cells): ≥ 4.70; pIC50 (H1299 cells): ≥ 4.70
CC1(C)Oc2ccc(Nc3nc(Nc4ccc5cnn(C(C)(C)CC6CC6)c5c4)ncc3F)cc2NC1=O [compound 1112] |  |  |  | pIC50 (A549 cells): ≥ 4.70; pIC50 (H1299 cells): ≥ 4.70
COc1cc(Nc2nc(Nc3ccc4cnn(C(C)(C)CC5CC5)c4c3)ncc2F)ccc1F [compound 1113] |  |  |  | pIC50 (A549 cells): ≥ 4.70; pIC50 (H1299 cells): ≥ 4.70
COc1cc(C)c(Nc2ncc(F)c(Nc3ccc4c(c3)NC(=O)[C@@H](C)O4)n2)cc1Cl [compound 1139] |  | ≥ 4.70 | < 4.70 | 
COc1cc(C)c(Nc2ncc(F)c(Nc3ccc4c(c3)NC(=O)[C@H](C)O4)n2)cc1Cl [compound 1140] |  | < 4.70 | < 4.70 | 
COc1cc(OC)c(Nc2ncc(F)c(Nc3ccc4c(c3)NC(=O)[C@H](C)O4)n2)cc1Cl [compound 1141] |  | < 4.70 | < 4.70 | 
COc1cc(C)c(Nc2ncc(F)c(Nc3ccc4c(c3)NC(C)(C)CO4)n2)cc1Cl [compound 1142] |  | ≥ 4.70 | < 4.70 | 
O=C1Nc2ccc(Nc3nc(Nc4cccc(-c5ncco5)c4)ncc3F)cc2OC1CCO (centres unmarked) [compound 1145] |  | ≥ 4.70 | ≥ 4.70 | 
Cc1ccc(CNc2ncc(F)c(Nc3ccc4c(c3)OCCO4)n2)cc1Cl [compound 1146] |  | ≥ 4.70 | < 4.70 | 
CC(Nc1ncc(F)c(Nc2ccc3c(c2)OCCO3)n1)c1ccccc1 (centres unmarked) [compound 1147] |  | ≥ 4.70 | ≥ 4.70 | 
COc1ccc(Nc2nc(Nc3cc(OC)c(Cl)cc3OC)ncc2F)cc1Cl [compound 1158] |  | ≥ 4.70 | ≥ 4.70 | 
COc1cc(Nc2nc(Nc3cc(OC)c(Cl)cc3OC)ncc2F)cc(OC)c1 [compound 1159] |  | ≥ 4.70 | ≥ 4.70 | 
CNc1ncc(F)c(Nc2cc(Cl)c(OC)c(Cl)c2)n1 [compound 1160] |  | ≥ 4.70 | ≥ 4.70 | 
COc1cc(C(N)=O)c(Nc2ncc(F)c(N(C)C3CCC3)n2)cc1OC(=O)c1ccccc1 [compound 1162] |  | ≥ 4.70 | ≥ 4.70 | 
COc1cc(C(N)=O)c(Nc2ncc(F)c(NC3CCCC3)n2)cc1OC(=O)c1ccccc1 [compound 1163] |  | ≥ 4.70 | ≥ 4.70 | 
COc1cc(C(N)=O)c(Nc2ncc(F)c(NC3CCCCC3)n2)cc1OC(=O)c1ccccc1 [compound 1164] |  | ≥ 4.70 | ≥ 4.70 | 

Reference: patent US8809341B2, “2,4-pyrimidinediamine compounds and uses as anti-proliferative agents” (Rigel Pharmaceuticals, Inc., priority 2003, dated 2014)
